Data as given in paper PMC7601681, “Human Serum Albumin Binds Native Insulin and Aggregable Insulin Fragments and Inhibits Their Aggregation” (Biomolecules, 2020).
Residues, ends and D or L forms follow the SMILES beside them. *: point of attachment. Butanoyl(4-pyren-1-yl) = O=C(CCCc1ccc2ccc3cccc4ccc1c2c34)*

Assays:
[1] = target: T1, HSA (Homo sapiens, UniProt P02768); experiment: Steady-state fluorescence titration with HSA (binding constant Kb); conditions: Py-LYQLENY 3 µM in buffer, fluorescence intensity as function of HSA concentration (plateau at 45 µM), Equation (3)
T1 construct: purchased Sigma-Aldrich
Protocol: The prepared samples were used within 24 h.
Steady-state absorption and fluorescence spectra were recorded at a resolution of 0.5 nm using an Aminco Bowman AB2 Series spectrofluorometer (Thermo Fisher Scientific Inc., Waltham, MA, USA). Unless otherwise indicated, in emission measurements, the excitation wavelength was 337 nm, and excitation and emission slits were set to 2.0 and 0.5 nm, respectively.
For Py-LYQLENY conjugate (2), the binding constants Kb were calculated according to Equation (3) proposed by Kuzmin et al.:θ = Kb·[HSA] / (1+ Kb·[HSA])(3) where [HSA] is the concentration of the albumin [61], θ = (I − I0)/(I∞ − I0) is the fraction of the pyrene probe bound with HSA, I0 is fluorescence intensity without HSA, I∞ is fluorescence intensity with [HSA] = 45 µM (reaching a plateau, Figure 6b) and I is the fluorescence intensity for subsequent […].
The calculated value also confirmed existence of interactions between 2 and HSA with pyrene fragment presented on less polar environment inside protein. […] The binding constants 1.5 ± 0.3 × 10^6 dm^3 mol^−1 to 6.5 ± 0.4 × 10^7 dm^3 mol^−1 were calculated for complexes of HSA with Py-hydrophobic peptide.

[2] = Solubility and aggregation of pyrene-labeled peptides seen by absorption and fluorescence; conditions: for solubility in ethanol and methanol: judged from narrow absorption bands
Protocol: The solutions of HSA (concentration = 3 10^−5 M) were prepared by dissolving the protein in 0.01 M of phosphate buffer saline (PBS, [NaCl] = 150 mM), pH = 7.2. […] The prepared samples were used within 24 h. […] The concentration of HSA was verified spectrophotometrically using the molar absorption coefficient 35500 M^−1cm^−1 at 280 nm for HSA [61]. In order to ensure complete protein hydration, the solutions were stored at room temperature for at least 1 h before measurements. The samples for fluorescence measurements were saturated with argon or deaerated with a vacuum pump.
The absorbances of Py-LYQLENY and Py-VEALYL were determined in 10 mM standard PBS solution, ethanol, methanol, and 10 mM TX-100. The spectra were normalized to a maximum of S0→S2 […]
band (Figure 4, panel I).
(1 picture or pasted object on this page, not shown here)
Fig. S7. Panel I: Normalized absorption spectra of Py-LYQLENY (a) and Py-VEALYL (b) in different solvents. Panel II: Normalized emission spectra of Py-LYQLENY (a) and Py-VEALYL (b) in different […]
We also investigated the solubility of Py-LYQLENY conjugate (2) in dioxane.
This allowed the molar coefficient absorbance to be determined, using the gravimetric […]
The addition of a small amount of concentrated
Py-LYQLENY stock solution in dioxane to the buffer solution enabled the molar absorbance coefficient […]
In order to investigate the possible aggregation of the fluorescence labeled insulin hot spots in the buffer solution, spectrophotometric titration was performed for Py -LYQLENY (2) in a range of concentration from 2.9 to 56.4 µM. Titration was carried out until there were no significant changes in fluorescence intensity.
The fluorescence spectra were recorded for each concentration (Figure 5a). After normalization of the […]
Fig. S8. Fluorescence spectra of Py-LYQLENY in PBS solutions recorded for the given probe

[3] = target: T1, HSA; experiment: Time-resolved fluorescence decay of the pyrene label in the presence of HSA; format: binding; conditions: [HSA] 30 μM, bi-exponential kinetics, average lifetime by Equation (2), λexc 337 nm, λem 400 nm
Protocol: The solutions of HSA (concentration = 3 10^−5 M) were prepared by dissolving the protein in 0.01 M of phosphate buffer saline (PBS, [NaCl] = 150 mM), pH = 7.2. […] The prepared samples were used within 24 h. […] In order to ensure complete protein hydration, the solutions were stored at room temperature for at least 1 h before measurements. The samples for fluorescence measurements were saturated with argon or deaerated with a vacuum pump.
Time-resolved measurements of HSA fluorescence were performed using a flash photolysis system based on a GL-3300 nitrogen laser (Photon Technology International, Birmingham, NJ, USA) providing single light pulses with a wavelength of 337.1 nm, duration ~800 ps, and average energy 100 µJ. The detection system consisted of a Baush&Lomb monochromator (Rochester, NY, USA), Hamamatsu 1P28 photomultiplier, and a PS325 power supply system (Stanford Research, Sunnyvale, CA, USA). […] All experiments were carried out at room temperature (25 ± 1 °C) using quartz cells with an optical length of 1 cm.

[4] = target: T1, HSA; experiment: Quenching of pyrene fluorescence by acrylamide (Stern-Volmer) in buffer and HSA solution; format: binding; conditions: [HSA] 30 µM, Stern-Volmer plots
Protocol: Additionally, we examined the quenching of Py-LYQLENY and Py-VEALYL by acrylamide (ACR) in the buffer solution and HSA solution (Figure 5 Stern-Volmer plots).
Figure 5 Stern–Volmer plots for quenching of Py-LYQLENY and Py-VEALYL by ACR in the buffer and HSA solution. I0 is fluorescence intensity without quencher, I—fluorescence intensity at various concentrations of ACR, [HSA] = 30 µM.

[5] = Time-resolved fluorescence decay of the pyrene label in buffer or TX-100 (no protein); format: physicochemical; conditions: PBS, mono-exponential kinetics, λexc 337 nm, λem 400 nm; short lifetime taken as sign of aggregation

T1 sequence (P02768 25-609): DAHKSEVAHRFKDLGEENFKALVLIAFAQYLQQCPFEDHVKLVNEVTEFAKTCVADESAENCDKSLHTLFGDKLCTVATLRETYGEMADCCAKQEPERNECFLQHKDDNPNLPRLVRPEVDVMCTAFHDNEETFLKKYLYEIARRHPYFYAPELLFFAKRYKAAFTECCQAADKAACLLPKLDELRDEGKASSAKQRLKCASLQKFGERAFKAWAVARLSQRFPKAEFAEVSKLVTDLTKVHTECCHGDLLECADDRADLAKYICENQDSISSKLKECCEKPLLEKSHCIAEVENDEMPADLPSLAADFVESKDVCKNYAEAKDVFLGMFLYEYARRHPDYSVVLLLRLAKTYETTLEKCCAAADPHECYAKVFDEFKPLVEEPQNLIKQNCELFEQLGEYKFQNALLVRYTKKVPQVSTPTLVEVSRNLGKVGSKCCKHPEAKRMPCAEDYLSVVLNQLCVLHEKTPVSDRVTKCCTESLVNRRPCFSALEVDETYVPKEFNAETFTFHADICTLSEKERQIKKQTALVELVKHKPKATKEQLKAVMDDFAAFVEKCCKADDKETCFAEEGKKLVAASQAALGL

CC(C)C[C@H](NC(=O)CCCc1ccc2ccc3cccc4ccc1c2c34)C(=O)N[C@@H](Cc1ccc(O)cc1)C(=O)N[C@@H](CCC(N)=O)C(=O)N[C@@H](CC(C)C)C(=O)N[C@@H](CCC(=O)O)C(=O)N[C@@H](CC(N)=O)C(=O)N[C@@H](Cc1ccc(O)cc1)C(=O)O [Py-LYQLENY, Py-LYQLENY-OH] ({Butanoyl(4-pyren-1-yl)}-LYQLENY-OH)
binding constant Kb [1]: 2 × 10^5 dm^3 mol^−1
solubility in aqua media in the presence of HSA [2]: increased significantly
solubility in dioxane [2]: dissolved relatively well
solubility in the buffer solution compared with dioxane ([2]; PBS): lower
solubility in ethanol and methanol [2]: good

CC(C)C[C@H](NC(=O)[C@H](Cc1ccc(O)cc1)NC(=O)[C@H](CC(C)C)NC(=O)[C@H](C)NC(=O)[C@H](CCC(=O)O)NC(=O)[C@@H](NC(=O)CCCc1ccc2ccc3cccc4ccc1c2c34)C(C)C)C(=O)O [Py-VEALYL, Py-VEALYL-OH] ({Butanoyl(4-pyren-1-yl)}-VEALYL-OH)
τHSA, lifetime of fluorescence decay in the presence of HSA [3]: 153.9 ns
quenching by acrylamide in the presence of HSA versus buffer (slope of I0/I vs. ACR concentration) [4]: protected against interaction with the quencher
τPBS, lifetime of fluorescence decay in PBS [5]: 43.9 ns
solubility in aqua media in the presence of HSA [2]: increased significantly
aggregation in buffer solution ([2]; 0.01 M PBS, 150 mM NaCl, pH 7.2): partial aggregation
solubility in ethanol and methanol [2]: good
